Assay results taken from patent US8691865B2 (AbbVie Inc., priority 2008, dated 2014).
Read-outs that look alike come from different tables or passages of the source.

Experiments:
[1] = target: human Cav2.2 (Homo sapiens, UniProt Q00975); test: Assessment of calcium channel activity using FLIPR (Ca2+ influx in IMR32 cells); type: cell-based
How it was run: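 Human neuroblastoma IMR32 cells were seeded at 1−1.2×10^5 cells/well and cultured 48 h at 37 °C before FLIPR calcium influx measurement. Percent inhibition at each concentration was calculated against the no-inhibitor signal, and IC50 came from sigmoidal dose-response fits.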

[2] = system: Sprague Dawley rats; test: Analgesic effect against neuropathic pain, Bennett model (chronic constriction injury); type: in vivo; conditions: Rattus norvegicus, 1 h; 30 mg/kg po; mechanical allodynia 60 minutes after administration; CCI rats; read-out: % MPE
Experimental: (iii) In Vivo Data—Determination of Analgesic Effect Against Neuropathic Pain—Bennett Model
Animals were prepared for testing, by use of a surgical procedure that induces neuropathic pain in one paw. IACUC guidelines for rodent survival surgery are followed. All surgical procedures are conducted on a clean, uncluttered surgical station. The area is wiped with a 70% ethanol solution before and after use. All instruments are sterilized by either autoclave or chemical sterilant (such as 2% glutaraldehyde >10 hr). Surgeons wear sterile gloves (for the initial procedure), clean lab coat or scrubs, hairnet or cap, and a half-mask respirator (when not working under a hood). Surgeons thoroughly wash their hands prior to donning sterile gloves. Gloves are disinfected in-between animals by cleansing with povidone iodine, chlorhexidine or 70% alcohol for at least 30 seconds. If multiple surgeries are performed, the instruments are cleaned and sterilized between procedures with hot glass beads (>10 seconds). To prevent thermal or chemical burns, the instruments are cooled by rinsing in sterile saline before use.
To minimize post-operative dehydration/maintain blood volume during the surgery, warmed sterile saline or Lactate Ringers solution at 10-15 mL/kg is administered subcutaneously immediately before or after surgery. This facilitates better renal function and presumably anesthesia product excretion post surgery. For all surgical procedures, anesthesia is induced with 4-5% isoflurane. Anesthesia is be maintained during surgery with 1-3% isoflurane. Following induction, the surgical site is carefully shaved and the exposed area is aseptically prepared with povidone-iodine scrub solution and 70% ethanol 2-3 times.
After site sterilization and anesthetic procedures outline above are completed, a 1.5 cm incision is made at the mid-thigh level to expose the biceps femoris and gluteous superficialis (right side), which are then separated by blunt dissection. The common sciatic nerve is exposed, isolated, and loosely ligated by four 5-0 chromic gut ligatures with <1 mm spacing between each. The surgical site is closed in layers—muscle is closed with 6.0 absorbable sutures, and the skin closed with wound clips. Animals are allowed to recover on a warming plate and are returned to their home cages when fully ambulatory. Animals are not be used for testing until at least 10 days following surgery.
Filament strengths used are: 0.4, 0.6, 1.0, 2, 4, 6, 8, and 15 g. […] Filaments are applied perpendicular to the mid-plantar paw surface with enough force to cause slight buckling and held in place for 6-8 seconds. Positive responses include an abrupt withdrawal of the paw from the stimulus or flinching behavior immediately following removal of the stimulus. The maximum force applied will be 15 g. […] All compounds were orally administered in 10% dimethyl sulfoxide/polyethylene glycol at a volume of 2.0 mL/kg, and mechanical allodynia was determined 60 minutes following compound administration. Data are reported as log g values and the percentage of maximum possible effect (% MPE) is calculated using log g values with the formula: % MPE=(log [observed PWT in grams]−log [mean PWT vehicle])/(log [15]−log [mean PWT vehicle])*100 All statistical procedures are run on log g values.

[3] = read-out: IC50 (μM) or percent inhibition (* indicates 3 minute incubation, otherwise 60 minute), IC50, 60 minute pre-incubation with compound, IMR32 cells, 80 mM KCl depolarization

Chain of human Cav2.2 (Q00975 whole entry): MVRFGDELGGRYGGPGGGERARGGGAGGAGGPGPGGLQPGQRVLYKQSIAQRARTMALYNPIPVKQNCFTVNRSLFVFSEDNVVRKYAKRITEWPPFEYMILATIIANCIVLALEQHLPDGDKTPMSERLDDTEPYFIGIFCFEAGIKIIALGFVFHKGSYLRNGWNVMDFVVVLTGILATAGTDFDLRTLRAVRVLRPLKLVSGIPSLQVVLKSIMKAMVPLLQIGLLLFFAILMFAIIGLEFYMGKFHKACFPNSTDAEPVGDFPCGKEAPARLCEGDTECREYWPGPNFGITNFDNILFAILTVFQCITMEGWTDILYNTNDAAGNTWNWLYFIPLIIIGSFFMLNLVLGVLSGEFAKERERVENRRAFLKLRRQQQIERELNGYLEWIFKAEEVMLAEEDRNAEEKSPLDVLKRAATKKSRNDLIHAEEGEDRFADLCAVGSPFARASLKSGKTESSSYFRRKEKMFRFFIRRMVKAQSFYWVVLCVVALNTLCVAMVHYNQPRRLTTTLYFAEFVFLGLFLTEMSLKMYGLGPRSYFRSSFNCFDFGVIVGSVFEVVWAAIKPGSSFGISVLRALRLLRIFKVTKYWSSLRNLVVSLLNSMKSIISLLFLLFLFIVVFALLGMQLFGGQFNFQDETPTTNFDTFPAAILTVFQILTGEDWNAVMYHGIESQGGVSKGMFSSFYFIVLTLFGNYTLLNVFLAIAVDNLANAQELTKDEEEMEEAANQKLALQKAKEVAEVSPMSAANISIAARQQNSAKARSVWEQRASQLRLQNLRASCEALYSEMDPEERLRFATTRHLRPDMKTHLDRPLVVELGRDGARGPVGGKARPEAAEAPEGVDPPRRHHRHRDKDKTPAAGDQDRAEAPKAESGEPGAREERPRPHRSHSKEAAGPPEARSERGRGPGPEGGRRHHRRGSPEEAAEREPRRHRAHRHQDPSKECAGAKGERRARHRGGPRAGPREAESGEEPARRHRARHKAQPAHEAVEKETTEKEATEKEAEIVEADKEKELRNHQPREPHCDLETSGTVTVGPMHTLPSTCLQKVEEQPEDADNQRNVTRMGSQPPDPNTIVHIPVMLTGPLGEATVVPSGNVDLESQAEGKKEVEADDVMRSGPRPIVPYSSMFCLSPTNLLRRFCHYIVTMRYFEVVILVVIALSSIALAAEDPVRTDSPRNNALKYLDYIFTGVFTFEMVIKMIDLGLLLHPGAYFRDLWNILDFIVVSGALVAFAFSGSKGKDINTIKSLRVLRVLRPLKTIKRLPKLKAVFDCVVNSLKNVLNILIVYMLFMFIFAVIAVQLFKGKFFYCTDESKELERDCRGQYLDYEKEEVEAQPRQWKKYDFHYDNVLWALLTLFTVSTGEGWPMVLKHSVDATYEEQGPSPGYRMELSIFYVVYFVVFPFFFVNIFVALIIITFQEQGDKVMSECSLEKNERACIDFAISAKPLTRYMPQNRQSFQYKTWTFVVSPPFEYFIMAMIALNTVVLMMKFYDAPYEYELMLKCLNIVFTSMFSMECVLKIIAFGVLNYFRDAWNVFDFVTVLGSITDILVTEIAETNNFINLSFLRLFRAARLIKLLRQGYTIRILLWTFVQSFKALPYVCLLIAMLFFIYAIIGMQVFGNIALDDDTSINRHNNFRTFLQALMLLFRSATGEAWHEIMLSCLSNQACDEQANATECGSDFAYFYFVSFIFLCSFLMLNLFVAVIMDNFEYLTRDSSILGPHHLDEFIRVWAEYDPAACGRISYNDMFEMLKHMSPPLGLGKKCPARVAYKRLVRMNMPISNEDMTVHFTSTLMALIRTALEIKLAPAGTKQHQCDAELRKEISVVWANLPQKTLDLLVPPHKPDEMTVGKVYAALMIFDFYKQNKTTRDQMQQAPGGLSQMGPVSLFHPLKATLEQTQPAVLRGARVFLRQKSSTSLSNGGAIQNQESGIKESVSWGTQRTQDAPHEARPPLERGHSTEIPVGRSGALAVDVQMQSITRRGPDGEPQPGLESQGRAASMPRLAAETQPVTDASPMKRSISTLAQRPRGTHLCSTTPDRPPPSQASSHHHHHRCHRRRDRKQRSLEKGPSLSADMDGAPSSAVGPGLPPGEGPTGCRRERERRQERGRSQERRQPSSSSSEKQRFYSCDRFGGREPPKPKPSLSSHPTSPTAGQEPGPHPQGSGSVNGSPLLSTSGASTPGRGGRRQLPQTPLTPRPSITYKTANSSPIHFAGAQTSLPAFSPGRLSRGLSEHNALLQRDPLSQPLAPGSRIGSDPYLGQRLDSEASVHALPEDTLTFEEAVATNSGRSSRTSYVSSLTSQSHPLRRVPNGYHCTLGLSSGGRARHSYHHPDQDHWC
Chain of human Cav2.2 (P54289 25-956 partner limits assumed): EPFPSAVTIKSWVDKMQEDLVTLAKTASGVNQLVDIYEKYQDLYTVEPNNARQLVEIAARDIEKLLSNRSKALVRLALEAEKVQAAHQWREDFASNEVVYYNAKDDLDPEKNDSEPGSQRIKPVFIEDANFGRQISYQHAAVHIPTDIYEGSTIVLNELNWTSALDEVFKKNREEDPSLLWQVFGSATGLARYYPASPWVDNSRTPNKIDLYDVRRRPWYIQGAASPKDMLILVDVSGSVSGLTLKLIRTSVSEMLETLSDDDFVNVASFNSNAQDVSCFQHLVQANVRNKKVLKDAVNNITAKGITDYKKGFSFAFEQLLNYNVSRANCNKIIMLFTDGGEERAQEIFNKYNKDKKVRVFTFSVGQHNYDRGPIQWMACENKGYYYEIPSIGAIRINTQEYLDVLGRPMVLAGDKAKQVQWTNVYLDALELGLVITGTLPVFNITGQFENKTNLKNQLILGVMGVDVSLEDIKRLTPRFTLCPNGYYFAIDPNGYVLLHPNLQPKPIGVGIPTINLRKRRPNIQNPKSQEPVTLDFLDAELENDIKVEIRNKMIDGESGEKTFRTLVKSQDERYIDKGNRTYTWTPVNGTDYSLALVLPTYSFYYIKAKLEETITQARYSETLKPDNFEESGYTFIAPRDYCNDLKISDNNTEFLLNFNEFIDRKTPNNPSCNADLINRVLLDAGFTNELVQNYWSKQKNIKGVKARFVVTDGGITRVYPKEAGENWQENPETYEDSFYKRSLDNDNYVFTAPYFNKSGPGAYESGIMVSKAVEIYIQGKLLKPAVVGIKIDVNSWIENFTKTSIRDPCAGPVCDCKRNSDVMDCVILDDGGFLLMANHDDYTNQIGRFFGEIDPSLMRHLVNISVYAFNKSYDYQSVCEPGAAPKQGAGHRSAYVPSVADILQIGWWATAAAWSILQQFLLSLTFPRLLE
Chain of human Cav2.2 (P54289 957-1103 partner limits assumed): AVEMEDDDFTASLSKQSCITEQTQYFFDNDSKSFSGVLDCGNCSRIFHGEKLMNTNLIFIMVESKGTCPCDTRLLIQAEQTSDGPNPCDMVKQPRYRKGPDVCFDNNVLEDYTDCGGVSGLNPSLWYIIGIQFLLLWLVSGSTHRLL
Chain of human Cav2.2 (P54284 whole entry partner): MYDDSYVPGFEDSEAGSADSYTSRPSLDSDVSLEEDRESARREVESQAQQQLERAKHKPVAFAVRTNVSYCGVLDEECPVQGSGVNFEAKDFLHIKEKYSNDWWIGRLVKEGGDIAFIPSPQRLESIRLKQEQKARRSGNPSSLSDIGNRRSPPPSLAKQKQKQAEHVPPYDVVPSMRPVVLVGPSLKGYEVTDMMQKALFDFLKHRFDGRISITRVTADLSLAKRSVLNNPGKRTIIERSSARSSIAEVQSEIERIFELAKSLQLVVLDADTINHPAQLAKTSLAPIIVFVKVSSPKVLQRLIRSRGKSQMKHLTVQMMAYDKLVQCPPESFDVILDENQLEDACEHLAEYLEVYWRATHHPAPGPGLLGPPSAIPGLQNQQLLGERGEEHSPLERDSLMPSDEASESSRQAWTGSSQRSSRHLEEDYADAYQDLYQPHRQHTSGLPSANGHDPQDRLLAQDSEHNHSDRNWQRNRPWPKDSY

| Molecule | IC50 [1] [µM] | inhibition in vivo at 30 mg/kg [2] [%] | IC50 [1, 3] [µM] |
| --- | --- | --- | --- |
| CCC[C@H](NC)C(=O)N[C@H]1CC[C@@H]2CN(c3cccc(OC(F)(F)F)c3)C[C@@H]21 [Example 718, N^2-methyl-N-{(3aR,4S,6aS)-2-[3-(trifluoromethoxy)phenyl]octahydrocyclopenta[c]pyrrol-4-yl}-L-norvalinamide] | 1.3 | 29 |  |
| CN[C@@H](CC(C)C)C(=O)N[C@H]1CC[C@@H]2CN(c3ccc(C(F)(F)F)cc3)C[C@@H]21 [Example 608, N^2-methyl-N-{(3aR,4S,6aS)-2-[4-(trifluoromethyl)phenyl]octahydrocyclopenta[c]pyrrol-4-yl}-L-leucinamide] | 1.65 | 79 |  |
| CN[C@@H](CC(C)C)C(=O)N[C@H]1CC[C@@H]2CN(c3ccc(OC(F)(F)F)cc3)C[C@@H]21 [Example 624, N^2-methyl-N-{(3aR,4S,6aS)-2-[4-(trifluoromethoxy)phenyl]octahydrocyclopenta[c]pyrrol-4-yl}-L-leucinamide] | 4.91 | 85 |  |
| O=C(N[C@H]1CC[C@@H]2CN(c3cccc(OC(F)(F)F)c3)C[C@@H]21)[C@@H]1C[C@@H](F)CN1 [Example 627, (4R)-4-fluoro-N-{(3aR,4S,6aS)-2-[3-(trifluoromethoxy)phenyl]octahydrocyclopenta[c]pyrrol-4-yl}-L-prolinamide] | 2.71 | 54 |  |
| CN[C@@H](CC(C)C)C(=O)N[C@H]1CC[C@@H]2CN(c3cccc(OC(F)(F)F)c3)C[C@@H]21 [Example 625, N^2-methyl-N-{(3aR,4S,6aS)-2-[3-(trifluoromethoxy)phenyl]octahydrocyclopenta[c]pyrrol-4-yl}-L-leucinamide] | 1.42 | 42 |  |
| CN[C@@H](CC(C)C)C(=O)N[C@H]1CC[C@@H]2CN(c3nccc(C(F)(F)F)n3)C[C@@H]21 [Example 722, N^2-methyl-N-{(3aR,4S,6aS)-2-[4-(trifluoromethyl)pyrimidin-2-yl]octahydrocyclopenta[c]pyrrol-4-yl}-L-leucinamide] | 2.53 | 8 |  |
| CN[C@@H](CC(C)C)C(=O)N[C@H]1CC[C@@H]2CN(c3ccc(C(F)(F)F)nc3)C[C@@H]21 [Example 735, N^2-methyl-N-{(3aR,4S,6aS)-2-[6-(trifluoromethyl)pyridin-3-yl]octahydrocyclopenta[c]pyrrol-4-yl}-L-leucinamide] | 3.62 | 60 |  |
| CC(C)(C)[C@H](O)C(=O)N[C@H]1CC[C@@H]2CN(c3cccc(C(F)(F)F)n3)C[C@@H]21 [Example 580, (2S)-2-hydroxy-3,3-dimethyl-N-{(3aR,4S,6aS)-2-[6-(trifluoromethyl)pyridin-2-yl]octahydrocyclopenta[c]pyrrol-4-yl}butanamide] | 1.88 | 5 |  |
| CN[C@@H](CC(C)C)C(=O)N[C@H]1CC[C@@H]2CN(c3cccc(C(F)F)c3)C[C@@H]21 [Example 729, N-{(3aR,4S,6aS)-2-[3-(difluoromethyl)phenyl]octahydrocyclopenta[c]pyrrol-4-yl}-N^2-methyl-L-leucinamide] | 1.08 | 85 |  |
| CN[C@@H](CC(C)C)C(=O)N[C@@H]1CC[C@H]2CN(c3ccc(OC(F)(F)F)cc3)C[C@H]21 [Example 739, N^2-methyl-N-{(3aS,4R,6aR)-2-[4-(trifluoromethoxy)phenyl]octahydrocyclopenta[c]pyrrol-4-yl}-L-leucinamide] | 2.85 | 63 |  |
| CN[C@@H](CC(C)C)C(=O)N[C@H]1CC[C@H]2CN(Cc3ccccc3)C[C@H]21 [Example 360, N^1-[(3aS,4S,6aR)-2-benzyloctahydrocyclopenta[c]pyrrol-4-yl]-N^2-methyl-L-leucinamide] | > 30 |  |  |
| CC(C)C(C(=O)N[C@H]1CC[C@@H]2CN(Cc3ccccc3F)C[C@@H]21)c1ccccc1 (stereo partly drawn) [Example 85, N-[(3aR,4S,6aS)-2-(2-fluorobenzyl)octahydrocyclopenta[c]pyrrol-4-yl]-3-methyl-2-phenylbutanamide] |  |  | 3.59 |
| COc1ccc(N2C[C@H]3CC[C@H](NC(=O)[C@@H]4C[C@@H](F)CN4)[C@H]3C2)cc1 [Example 653, (4R)-4-fluoro-N-[(3aR,4S,6aS)-2-(4-methoxyphenyl)octahydrocyclopenta[c]pyrrol-4-yl]-L-prolinamide] | > 30 |  |  |
| Cc1c(CN[C@H]2CC[C@@H]3CN(c4cccc(C(F)(F)F)n4)C[C@@H]32)[nH]c2ccc(F)cc12 [Example 667, (3aR,4S,6aS)-N-[(5-fluoro-3-methyl-1H-indol-2-yl)methyl]-2-[6-(trifluoromethyl)pyridin-2-yl]octahydrocyclopenta[c]pyrrol-4-amine] | 1.49 |  |  |
| CC(C)(C)OC(=O)N[C@H](C(=O)N[C@H]1CC[C@@H]2CN(Cc3ccccc3)C[C@@H]21)C(C)(C)C [Example 225, tert-butyl(S)-1-((3aR,4S,6aS)-2-benzyloctahydrocyclopenta[c]pyrrol-4-ylamino)-3,3-dimethyl-1-oxobutan-2-ylcarbamate] |  |  | 9.36 |
| O=S(=O)(N[C@H]1CC[C@@H]2CN(c3cccc(C(F)(F)F)n3)C[C@@H]21)c1ccc(Cl)cc1 [Example 700, 4-chloro-N-{(3aR,4S,6aS)-2-[6-(trifluoromethyl)pyridin-2-yl]octahydrocyclopenta[c]pyrrol-4-yl}benzenesulfonamide] | 4.96 |  |  |
| CC(C)(C)C[C@H](N)C(=O)N[C@H]1CC[C@@H]2CN(S(=O)(=O)c3cccc(C(F)(F)F)c3)C[C@@H]21 [Example 392, 4-methyl-N^1-((3aR,4S,6aS)-2-{[3-(trifluoromethyl)phenyl]sulfonyl}octahydrocyclopenta[c]pyrrol-4-yl)-L-leucinamide] | 0.95 |  |  |
| CC[C@H](C)[C@H](NC)C(=O)N[C@H]1CC[C@@H]2CN(Cc3ccccc3)C[C@@H]21 [Example 353, N^1-[(3aR,4S,6aS)-2-benzyloctahydrocyclopenta[c]pyrrol-4-yl]-N^2-methyl-L-isoleucinamide] | > 30 |  |  |
| CC(C)C[C@@H](NS(C)(=O)=O)C(=O)N[C@@H]1CC[C@H]2CN(Cc3cccc(C(F)(F)F)c3)C[C@H]21 [Example 171, N^2-(methylsulfonyl)-N^1-{(3aS,4R,6aR)-2-[3-(trifluoromethyl)benzyl]octahydrocyclopenta[c]pyrrol-4-yl}-D-leucinamide] |  |  | 6.16 |
| (3aR,4S,6aS)-N-[(4-chloro-1H-indol-3-yl)methyl]-2-[6-(trifluoromethyl)pyridin-2-yl]octahydrocyclopenta[c]pyrrol-4-amine [Example 692] |  |  | 0.99 |
| CC(C)C[C@H](NC(=O)OC(C)(C)C)C(=O)N[C@@H]1CC[C@H]2CN(Cc3cccc(C(F)(F)F)c3)C[C@H]21 (relative stereo) [Example 148, N^2-(tert-butyloxycarbonyl)-N^1-{(3aS*,4R*,6aR*)-2-[3-(trifluoromethyl)benzyl]octahydrocyclopenta[c]pyrrol-4-yl}-L-leucinamide] |  |  | 0.83 |
| O=C(N[C@H]1CC[C@@H]2CN(c3cccc(F)c3)C[C@@H]21)[C@@H]1C[C@@H](F)CN1 [Example 640, (4R)-4-fluoro-N-[(3aR,4S,6aS)-2-(3-fluorophenyl)octahydrocyclopenta[c]pyrrol-4-yl]-L-prolinamide] | 14.4 |  |  |
